Test results published in the supplement of paper PMC4862054.

How the values were obtained:
CAL-51 [1] = experiment: normalised viability (% of control), CellTiter-Blue; higher = more viable cells (about 100 = DMSO control); conditions: incubation time: 72 h
Method in brief: (§1)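 Plates were quality-checked by Z'-factor and normalised to vehicle (100) and a positive kill control (0). The underlying assay incubated breast cancer cell lines for 72 h on 384-well plates with compound, then added 2.5 µl CellTiter-Blue for 2 h at 37 °C and read at 560/590 nm. The value is normalised viability at a single listed concentration of the series.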

MDA-MB-468 [2] = experiment: as above; conditions: incubation time: 72 h
Method in brief: as §1

Hs578T [3] = experiment: as above; conditions: incubation time: 72 h
Method in brief: as §1

MDA-MB-231 [4] = experiment: as above; conditions: incubation time: 72 h
Method in brief: as §1

MDA-MB-436 [5] = experiment: as above; conditions: incubation time: 72 h
Method in brief: as §1

MFM-223 [6] = experiment: as above; conditions: incubation time: 72 h
Method in brief: as §1

CAL-148 [7] = experiment: as above; conditions: incubation time: 72 h
Method in brief: as §1

HCC1937 [8] = experiment: as above; conditions: incubation time: 72 h
Method in brief: as §1

HDQ-P1 [9] = experiment: as above; conditions: incubation time: 72 h
Method in brief: as §1

CAL-120 [10] = experiment: as above; conditions: incubation time: 72 h
Method in brief: as §1

BT-474 [11] = experiment: as above; conditions: incubation time: 72 h
Method in brief: as §1

HCC1143 [12] = experiment: as above; conditions: incubation time: 72 h
Method in brief: as §1

HCC1599 [13] = experiment: as above; conditions: incubation time: 72 h
Method in brief: as §1

SK-BR-3 [14] = experiment: as above; conditions: incubation time: 72 h
Method in brief: as §1

MDA-MB-453 [15] = experiment: as above; conditions: incubation time: 72 h
Method in brief: as §1

CAL-85-1 [16] = experiment: as above; conditions: incubation time: 72 h
Method in brief: as §1

BT-549 [17] = experiment: as above; conditions: incubation time: 72 h
Method in brief: as §1

DU-4475 [18] = experiment: as above; conditions: incubation time: 72 h
Method in brief: as §1

CAL-51 [19] = experiment: normalised viability (% of control), CellTiter-Blue; higher = more viable cells (about 100 = DMSO control); conditions: 5 nM; incubation time: 72 h
Protocol: (§2)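 DSRT, CellTiter-Blue viability, 72 h incubation. Signal is normalised to DMSO and benzethonium chloride controls. Value is the normalised response at dose 3.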

MDA-MB-468 [20] = experiment: as above; conditions: 50 nM; incubation time: 72 h
Protocol: as §2

Hs578T [21] = experiment: as above; conditions: 50 nM; incubation time: 72 h
Protocol: as §2

MDA-MB-231 [22] = experiment: as above; conditions: 50 nM; incubation time: 72 h
Protocol: as §2

MDA-MB-436 [23] = experiment: as above; conditions: 50 nM; incubation time: 72 h
Protocol: as §2

MFM-223 [24] = experiment: as above; conditions: 50 nM; incubation time: 72 h
Protocol: as §2

CAL-148 [25] = experiment: as above; conditions: 5 nM; incubation time: 72 h
Protocol: as §2

HCC1937 [26] = experiment: as above; conditions: 50 nM; incubation time: 72 h
Protocol: as §2

HDQ-P1 [27] = experiment: as above; conditions: 5 nM; incubation time: 72 h
Protocol: as §2

CAL-120 [28] = experiment: as above; conditions: 50 nM; incubation time: 72 h
Protocol: as §2

BT-474 [29] = experiment: as above; conditions: 50 nM; incubation time: 72 h
Protocol: as §2

HCC1143 [30] = experiment: as above; conditions: 50 nM; incubation time: 72 h
Protocol: as §2

HCC1599 [31] = experiment: as above; conditions: 50 nM; incubation time: 72 h
Protocol: as §2

SK-BR-3 [32] = experiment: as above; conditions: 50 nM; incubation time: 72 h
Protocol: as §2

MDA-MB-453 [33] = experiment: as above; conditions: 5 nM; incubation time: 72 h
Protocol: as §2

CAL-85-1 [34] = experiment: as above; conditions: 5 nM; incubation time: 72 h
Protocol: as §2

BT-549 [35] = experiment: as above; conditions: 50 nM; incubation time: 72 h
Protocol: as §2

DU-4475 [36] = experiment: as above; conditions: 5 nM; incubation time: 72 h
Protocol: as §2

CAL-51 [37] = experiment: normalised viability (% of control), CellTiter-Blue; higher = more viable cells (100 = DMSO, 0 = benzethonium chloride kill control); conditions: incubation time: 72 h
Protocol: (§3)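 DSRT, CellTiter-Blue viability, 72 h incubation. Signal is normalised to DMSO and benzethonium chloride controls. Value is the normalised response at dose 1.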

MDA-MB-468 [38] = experiment: as above; conditions: incubation time: 72 h
Protocol: as §3

Hs578T [39] = experiment: as above; conditions: incubation time: 72 h
Protocol: as §3

MDA-MB-231 [40] = experiment: as above; conditions: incubation time: 72 h
Protocol: as §3

MDA-MB-436 [41] = experiment: as above; conditions: incubation time: 72 h
Protocol: as §3

MFM-223 [42] = experiment: as above; conditions: incubation time: 72 h
Protocol: as §3

CAL-148 [43] = experiment: as above; conditions: incubation time: 72 h
Protocol: as §3

HCC1937 [44] = experiment: as above; conditions: incubation time: 72 h
Protocol: as §3

HDQ-P1 [45] = experiment: as above; conditions: incubation time: 72 h
Protocol: as §3

CAL-120 [46] = experiment: as above; conditions: incubation time: 72 h
Protocol: as §3

BT-474 [47] = experiment: as above; conditions: incubation time: 72 h
Protocol: as §3

HCC1143 [48] = experiment: as above; conditions: incubation time: 72 h
Protocol: as §3

HCC1599 [49] = experiment: as above; conditions: incubation time: 72 h
Protocol: as §3

SK-BR-3 [50] = experiment: as above; conditions: incubation time: 72 h
Protocol: as §3

MDA-MB-453 [51] = experiment: as above; conditions: incubation time: 72 h
Protocol: as §3

CAL-85-1 [52] = experiment: as above; conditions: incubation time: 72 h
Protocol: as §3

BT-549 [53] = experiment: as above; conditions: incubation time: 72 h
Protocol: as §3

DU-4475 [54] = experiment: as above; conditions: incubation time: 72 h
Protocol: as §3

CC[C@@]1(O)C(=O)OCc2c1cc1n(c2=O)Cc2cc3ccccc3nc2-1 [Camptothecin]
normalised viability (CAL-51 [1]; 1.5 nM): 103% | normalised viability (CAL-51 [1]; 15 nM): 57% | normalised viability (CAL-51 [1]; 50 nM): 31.1% | normalised viability (MDA-MB-468 [2]; 5 nM): 93% | normalised viability (MDA-MB-468 [2]; 500 nM): 12.1% | normalised viability (MDA-MB-468 [2]; 5000 nM): 6.62% | normalised viability (Hs578T [3]; 5 nM): 112% | normalised viability (Hs578T [3]; 500 nM): 59.6% | normalised viability (Hs578T [3]; 5000 nM): 11.5% | normalised viability (MDA-MB-231 [4]; 5 nM): 98% | normalised viability (MDA-MB-231 [4]; 500 nM): 51.8% | normalised viability (MDA-MB-231 [4]; 5000 nM): 22.6% | normalised viability (MDA-MB-436 [5]; 5 nM): 97% | normalised viability (MDA-MB-436 [5]; 500 nM): 31.2% | normalised viability (MDA-MB-436 [5]; 5000 nM): 10.3% | normalised viability (MFM-223 [6]; 5 nM): 108% | normalised viability (MFM-223 [6]; 500 nM): 79.8% | normalised viability (MFM-223 [6]; 5000 nM): 32.3% | normalised viability (CAL-148 [7]; 1.5 nM): 102% | normalised viability (CAL-148 [7]; 15 nM): 47.9% | normalised viability (CAL-148 [7]; 50 nM): 30.9% | normalised viability (HCC1937 [8]; 5 nM): 92.6% | normalised viability (HCC1937 [8]; 500 nM): 29.6% | normalised viability (HCC1937 [8]; 5000 nM): 25.5% | normalised viability (HDQ-P1 [9]; 1.5 nM): 90.7% | normalised viability (HDQ-P1 [9]; 15 nM): 83.2% | normalised viability (HDQ-P1 [9]; 50 nM): 65.9% | normalised viability (CAL-120 [10]; 5 nM): 81.5% | normalised viability (CAL-120 [10]; 500 nM): 22.6% | normalised viability (CAL-120 [10]; 5000 nM): 10.3% | normalised viability (BT-474 [11]; 5 nM): 101% | normalised viability (BT-474 [11]; 500 nM): 69.9% | normalised viability (BT-474 [11]; 5000 nM): 60.3% | normalised viability (HCC1143 [12]; 5 nM): 78.3% | normalised viability (HCC1143 [12]; 500 nM): 33.5% | normalised viability (HCC1143 [12]; 5000 nM): 22.9% | normalised viability (HCC1599 [13]; 5 nM): 108% | normalised viability (HCC1599 [13]; 500 nM): 60.1% | normalised viability (HCC1599 [13]; 5000 nM): 29.5% | normalised viability (SK-BR-3 [14]; 5 nM): 100% | normalised viability (SK-BR-3 [14]; 500 nM): 20.6% | normalised viability (SK-BR-3 [14]; 5000 nM): 8% | normalised viability (MDA-MB-453 [15]; 1.5 nM): 114% | normalised viability (MDA-MB-453 [15]; 15 nM): 105% | normalised viability (MDA-MB-453 [15]; 50 nM): 77.4% | normalised viability (CAL-85-1 [16]; 1.5 nM): 98% | normalised viability (CAL-85-1 [16]; 15 nM): 87.3% | normalised viability (CAL-85-1 [16]; 50 nM): 74.8% | normalised viability (BT-549 [17]; 5 nM): 82.1% | normalised viability (BT-549 [17]; 500 nM): 39.3% | normalised viability (BT-549 [17]; 5000 nM): 20.7% | normalised viability (DU-4475 [18]; 1.5 nM): 117% | normalised viability (DU-4475 [18]; 15 nM): 60.2% | normalised viability (DU-4475 [18]; 50 nM): 44.7% | normalised viability (CAL-51 [19]): 99% | normalised viability (MDA-MB-468 [20]): 46.8% | normalised viability (Hs578T [21]): 81.8% | normalised viability (MDA-MB-231 [22]): 78.9% | normalised viability (MDA-MB-436 [23]): 87.9% | normalised viability (MFM-223 [24]): 93.8% | normalised viability (CAL-148 [25]): 70.3% | normalised viability (HCC1937 [26]): 45.8% | normalised viability (HDQ-P1 [27]): 99.4% | normalised viability (CAL-120 [28]): 65.5% | normalised viability (BT-474 [29]): 90.8% | normalised viability (HCC1143 [30]): 50.9% | normalised viability (HCC1599 [31]): 90.2% | normalised viability (SK-BR-3 [32]): 49.7% | normalised viability (MDA-MB-453 [33]): 103% | normalised viability (CAL-85-1 [34]): 93.7% | normalised viability (BT-549 [35]): 67.3% | normalised viability (DU-4475 [36]): 82.2%

O=P(O)(NCCCl)NCCCl [Ifosfamide mustard] (1 nM)
normalised viability (CAL-51 [37]): 108% | normalised viability (MDA-MB-468 [38]): 101% | normalised viability (Hs578T [39]): 116% | normalised viability (MDA-MB-231 [40]): 101% | normalised viability (MDA-MB-436 [41]): 110% | normalised viability (MFM-223 [42]): 94.9% | normalised viability (CAL-148 [43]): 111% | normalised viability (HCC1937 [44]): 92.3% | normalised viability (HDQ-P1 [45]): 88.6% | normalised viability (CAL-120 [46]): 82.2% | normalised viability (BT-474 [47]): 113% | normalised viability (HCC1143 [48]): 97.4% | normalised viability (HCC1599 [49]): 109% | normalised viability (SK-BR-3 [50]): 91.8% | normalised viability (MDA-MB-453 [51]): 109% | normalised viability (CAL-85-1 [52]): 85.5% | normalised viability (BT-549 [53]): 102% | normalised viability (DU-4475 [54]): 106%
